Assay [1] deals with T1, DDB1DB/DCAF15 and RBM39 R1R2 complex (Homo sapiens, UniProt Q14498+Q66K64).
T1 construct: Amino acids 150 to 331 of RBM39 were cloned into pGEX4T3; GST (from vector pGEX4T3); TEV cleavage site (N); made in house; host or cells: DDB1DB/His-DCAF15: baculovirus/Sf9 co-expression; RBM39 R1R2: E. coli (pGEX4T3)
As to the kind of experiment: DCAF15 RBM39 Complex Formation Assay (FRET). The format is binding. The conditions noted are these: FRET ratio Em 665/Em 615, incubated overnight at 4° C. From the text: LANCE Eu-W1024 Anti-6×His and SureLight Allophycocyanin-anti-FLAG antibodies were purchased from Perkin Elmer. Human DDB1DB and His-tagged DCAF15 were co-expressed in baculovirus/sf9 system. While full length DDB1 contains three 7-bladed propellers termed A, B, and C, DDB1DB has only propeller A (amino acids 1 to 395) and C (amino acids 709-1140). The His-tagged DCAF15 contains six histidine residues directly preceding the DCAF15 sequence without any linker. An RBM39 fragment containing RRM1 and RRM2 was expressed in E. coli. Amino acids 150 to 331 of RBM39 were cloned into pGEX4T3 with an N-terminal TEV cleavage site and a C-terminal FLAG tag.
A compound of the present disclosure in DMSO (2 μL) was transferred to a 384-well assay plate. Compound was added in 14 points, 3-fold serial dilution (1 μM to 0.6 pico molar) in DMSO. […] FRET assay buffer (25 mM HEPES, pH 7.5, 100 mM NaCl, […], 0.5 mM TCEP, 0.005% Tween-20, 0.2 nM Eu—W1024 Anti-6×His, 50 nM SureLight Allophycocyanin-anti-FLAG, 20 nM DDB1DB/DCAF15, 50 nM RBM39 R1R2) was added and the resulting solution was incubated overnight at 4° C. The plate was placed in a plate reader (Spark 10) with excitation at 1=340 nm and emissions monitored at 1=665 nm and 1=615 nm, and the FRET ratio (Em 665/Em 615) was determined. Low signal controls containing no compound and high signal controls containing 10 mM indisulam were measured for each plate.
EC50 values were calculated using Dotmatics template equation for 4-parameter fit. Results are expressed as % formation using the following equation: […]

For assay [2], the system named is HCT116 human colorectal carcinoma cells. As to the kind of experiment: CellTiter-Glo Luminescent Cell Viability Assay. The assay is classed as cell-based. The note with it: HCT-116, 72 h, 3 days. The procedure: HCT116 human colorectal carcinoma cells were used in these experiments. HCT116 cells were obtained from ATCC. CellTiter-Glo® Luminescent Cell Viability Assay Reagent was obtained from Promega.
About 3,000 cells were seeded into 96-well plate with […] of media (DMEM supplemented with 10% FBS, 100 units penicillin, and […] streptomycin per mL) the day before the experiment. For compound treatment, the master plate was prepared as follows: 100× compound stocks were prepared in a 96-well plate by 1 to 3 serial dilutions of 0.5 mM DMSO stocks. Each master plate contained serial dilution of 8 compounds, including the control compound E7820. […] of 100× compound stock was added to each well of the assay plate to give final concentrations of […]. Each concentration was tested in triplicate. After 3 days, cell viability was determined using CellTiter-Glo Luminescent Cell Viability Assay Reagent following the manufacturer's recommended protocol. Briefly, […] of CellTiter-Glo reagent was added to each well of the assay plate and the contents were mixed for 3 minutes at 600 rpm on a shaker (Thermomixer R). The plate was immediately placed in a plate reader (Synergy 2) and the luminescence signal (0.5 second per well integration time) was determined. IC50 values were calculated using Dotmatics software.

T1 sequence (Q66K64 whole entry, the tested form may be a part): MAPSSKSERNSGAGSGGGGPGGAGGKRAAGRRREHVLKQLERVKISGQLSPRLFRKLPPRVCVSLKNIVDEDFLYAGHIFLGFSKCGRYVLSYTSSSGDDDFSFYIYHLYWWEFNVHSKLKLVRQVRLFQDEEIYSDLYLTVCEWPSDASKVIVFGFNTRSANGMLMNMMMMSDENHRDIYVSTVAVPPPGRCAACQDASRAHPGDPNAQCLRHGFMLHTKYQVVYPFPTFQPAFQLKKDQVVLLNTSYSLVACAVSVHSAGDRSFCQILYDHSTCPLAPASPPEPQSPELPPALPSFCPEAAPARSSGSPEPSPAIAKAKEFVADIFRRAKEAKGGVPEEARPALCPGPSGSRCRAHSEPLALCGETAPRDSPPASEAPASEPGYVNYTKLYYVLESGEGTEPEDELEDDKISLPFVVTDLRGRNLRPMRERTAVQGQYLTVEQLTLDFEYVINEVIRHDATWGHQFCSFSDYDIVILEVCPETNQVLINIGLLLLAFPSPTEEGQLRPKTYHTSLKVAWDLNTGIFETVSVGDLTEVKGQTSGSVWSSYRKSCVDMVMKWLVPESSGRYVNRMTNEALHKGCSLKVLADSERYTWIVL
T1 sequence (Q14498 150-331): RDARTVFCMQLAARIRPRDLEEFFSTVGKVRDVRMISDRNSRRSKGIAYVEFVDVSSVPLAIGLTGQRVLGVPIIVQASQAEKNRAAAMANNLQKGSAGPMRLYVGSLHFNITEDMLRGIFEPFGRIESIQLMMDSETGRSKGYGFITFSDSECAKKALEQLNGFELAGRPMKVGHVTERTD
T1 sequence (Q16531 with tags, fused parts or gaps DEL396-708 partner): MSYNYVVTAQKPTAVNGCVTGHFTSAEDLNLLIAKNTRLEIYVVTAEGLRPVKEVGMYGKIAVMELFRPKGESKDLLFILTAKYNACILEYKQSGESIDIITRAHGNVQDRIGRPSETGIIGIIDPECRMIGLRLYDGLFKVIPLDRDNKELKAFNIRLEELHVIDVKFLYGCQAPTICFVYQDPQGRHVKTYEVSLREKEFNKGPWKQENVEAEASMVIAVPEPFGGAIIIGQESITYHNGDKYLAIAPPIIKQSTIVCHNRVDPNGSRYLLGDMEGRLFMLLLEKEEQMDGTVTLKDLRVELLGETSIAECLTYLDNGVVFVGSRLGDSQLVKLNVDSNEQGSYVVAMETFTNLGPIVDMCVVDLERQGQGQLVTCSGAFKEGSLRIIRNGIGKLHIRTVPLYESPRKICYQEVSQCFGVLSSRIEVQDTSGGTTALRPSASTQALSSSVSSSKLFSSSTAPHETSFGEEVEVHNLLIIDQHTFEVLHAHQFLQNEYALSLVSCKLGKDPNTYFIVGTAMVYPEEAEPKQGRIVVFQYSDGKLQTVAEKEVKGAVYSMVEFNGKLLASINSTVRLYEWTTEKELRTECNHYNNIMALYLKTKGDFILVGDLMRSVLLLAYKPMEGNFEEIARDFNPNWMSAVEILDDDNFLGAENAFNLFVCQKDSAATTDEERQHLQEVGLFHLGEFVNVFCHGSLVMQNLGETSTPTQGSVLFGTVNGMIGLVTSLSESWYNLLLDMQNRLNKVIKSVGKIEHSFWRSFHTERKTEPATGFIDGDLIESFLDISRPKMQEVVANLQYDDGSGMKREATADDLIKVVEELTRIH

`N#Cc1c[nH]c2c(NS(=O)(=O)c3cn[nH]c3)ccc(F)c12` [Compound 214, N-(3-cyano-4-fluoro-1H-indol-7-yl)-1H-pyrazole-4-sulfonamide]: the IC50 in assay [1] was under 250 nM. Besides, the EC50 in assay [2] is over 1000 nM.

For `C[C@H](CO)n1cc(S(=O)(=O)Nc2ccc(Cl)c3c(C#N)c[nH]c23)cn1` [Compound 208, (R)—N-(4-chloro-3-cyano-1H-indol-7-yl)-1-(1-hydroxypropan-2-yl)-1H-pyrazole-4-sulfonamide], the IC50 in assay [1] was under 250 nM. In addition, the EC50 in assay [2] fell in the range of 250 to 1000 nM.

With `CCn1ncc(S(=O)(=O)Nc2ccc(C)c3c(C#N)c[nH]c23)c1N` [Compound 271, 5-amino-N-(3-cyano-4-methyl-1H-indol-7-yl)-1-ethyl-pyrazole-4-sulfonamide], in assay [1], the IC50 was under 250 nM. Moreover, the EC50 in assay [2] was under 250 nM.

In the case of `Cn1cc(S(=O)(=O)Nc2ccc(F)c3c(C#N)c[nH]c23)cn1` [Compound 65, N-(3-cyano-4-fluoro-1H-indol-7-yl)-1-methyl-pyrazole-4-sulfonamide], the concentration for half-maximal inhibition (IC50) in assay [1] was under 250 nM. Moreover, the EC50 in assay [2] was 250 to 1000 nM.

`N#Cc1c[nH]c2c(NS(=O)(=O)c3cnn(CC(F)(F)F)c3)ccc(Cl)c12` [Compound 120, N-(4-chloro-3-cyano-1H-indol-7-yl)-1-(2,2,2-trifluoroethyl)pyrazole-4-sulfonamide]: the half-inhibitory concentration (IC50) in assay [1] was under 250 nM. Further, the concentration for a half-maximal effect (EC50) in assay [2] was under 250 nM.

Take `Cc1ccc(NS(=O)(=O)c2cnn(CC(=O)N(C)C)c2)c2[nH]cc(C#N)c12` [Compound 140, 2-[4-[(3-cyano-4-methyl-1H-indol-7-yl)sulfamoyl]pyrazol-1-yl]-N,N-dimethyl-acetamide]: in assay [1], the IC50 is 250 to 1000 nM. Besides, the EC50 in assay [2] was over 1000 nM.

As for `Cc1ccc(NS(=O)(=O)c2cnn(C3CCN(CC(F)(F)F)CC3)c2)c2[nH]cc(C#N)c12` [Compound 87, N-(3-cyano-4-methyl-1H-indol-7-yl)-1-[1-(2,2,2-trifluoroethyl)-4-piperidyl]pyrazole-4-sulfonamide], in assay [1], the IC50 is under 250 nM. Besides, the EC50 in assay [2] was over 1000 nM.

As to `Cc1ccc(NS(=O)(=O)c2cnn(C3CC(F)C3)c2)c2[nH]cc(C#N)c12` (stereo not shown) [Compound 111, N-(3-cyano-4-methyl-1H-indol-7-yl)-1-(3-fluorocyclobutyl)pyrazole-4-sulfonamide], the IC50 in assay [1] is under 250 nM. The EC50 in assay [2] lay in the range of 250 to 1000 nM.

For the molecule `COCCn1cc(S(=O)(=O)Nc2cccc3c(Cl)c[nH]c23)cn1` [Compound 49, N-(3-chloro-1H-indol-7-yl)-1-(2-methoxyethyl)pyrazole-4-sulfonamide], the half-maximal inhibitory concentration (IC50) in assay [1] was under 250 nM. Besides, the half-maximal effective concentration (EC50) in assay [2] fell in the range of 250 to 1000 nM.

Consider `Cn1cc(S(=O)(=O)Nc2ccc(Cl)c3c(C#N)c[nH]c23)cn1` [Compound 82, N-(4-chloro-3-cyano-1H-indol-7-yl)-1-methyl-pyrazole-4-sulfonamide], for which the IC50 in assay [1] was under 250 nM. Besides, the EC50 in assay [2] was under 250 nM.

For the molecule `N#Cc1c[nH]c2c(NS(=O)(=O)c3cnn(CC(F)F)c3)ccc(C(F)(F)F)c12` [Compound 104, N-[3-cyano-4-(trifluoromethyl)-1H-indol-7-yl]-1-(2,2-difluoroethyl)pyrazole-4-sulfonamide], the half-maximal inhibitory concentration (IC50) in assay [1] was under 250 nM. Also, the 50% effective concentration (EC50) in assay [2] was 250 to 1000 nM.

Turning to `C[C@@H](CO)Cn1cc(S(=O)(=O)Nc2ccc(Cl)c3c(C#N)c[nH]c23)cn1` [Compound 265, N-(4-chloro-3-cyano-1H-indol-7-yl)-1-[(2R)-3-hydroxy-2-methyl-propyl]pyrazole-4-sulfonamide], the IC50 in assay [1] is under 250 nM. For the same molecule, the EC50 in assay [2] is 250 to 1000 nM.

For `Cc1ccc(NS(=O)(=O)c2cnn(C)c2C#N)c2[nH]cc(C#N)c12` [Compound 131, 5-cyano-N-(3-cyano-4-methyl-1H-indol-7-yl)-1-methyl-pyrazole-4-sulfonamide], the IC50 in assay [1] is 250 to 1000 nM.

Regarding `N#Cc1n[nH]c2c(NS(=O)(=O)c3cnn([C@H](CO)CF)c3)ccc(Cl)c12` [Compound 310, N-(4-chloro-3-cyano-1H-indazol-7-yl)-1-[(1R)-1-(fluoromethyl)-2-hydroxy-ethyl]pyrazole-4-sulfonamide], the IC50 in assay [1] was under 250 nM.

In the case of `COCCN(c1cccc2c(Cl)c[nH]c12)S(=O)(=O)c1cnn(CCOC)c1` [Compound 50, N-(3-chloro-1H-indol-7-yl)-N,1-bis(2-methoxyethyl)pyrazole-4-sulfonamide], the IC50 in assay [1] is over 1000 nM.

Regarding `Cn1cc(S(=O)(=O)Nc2ccc(F)c3cc[nH]c23)cn1` [Compound 55, N-(4-fluoro-1H-indol-7-yl)-1-methyl-pyrazole-4-sulfonamide], in assay [1], the IC50 is over 1000 nM.

Turning to `Cc1nn(C)cc1S(=O)(=O)Nc1cccc2c(Cl)c[nH]c12` [Compound 5, N-(3-chloro-1H-indol-7-yl)-1,3-dimethyl-pyrazole-4-sulfonamide], the IC50 in assay [1] was 250 to 1000 nM.

As for `CCn1cc(S(=O)(=O)Nc2cccc3c(Cl)c[nH]c23)cn1` [Compound 4, N-(3-chloro-1H-indol-7-yl)-1-ethyl-pyrazole-4-sulfonamide], the IC50 in assay [1] was under 250 nM.

`O=S(=O)(Nc1cccc2c(Cl)c[nH]c12)c1cn[nH]c1` [Compound 10, N-(3-chloro-1H-indol-7-yl)-1H-pyrazole-4-sulfonamide]: in assay [1], the half-inhibitory concentration (IC50) is under 250 nM.

`O=S1(=O)CC(n2cc(S(=O)(=O)Nc3cccc4c(Cl)c[nH]c34)cn2)C1` [Compound 58, N-(3-chloro-1H-indol-7-yl)-1-(1,1-dioxothietan-3-yl)pyrazole-4-sulfonamide]: the IC50 in assay [1] was over 1000 nM.

In the case of `Cc1nn(C)c(C)c1S(=O)(=O)Nc1cccc2c(Cl)c[nH]c12` [Compound 2, N-(3-chloro-1H-indol-7-yl)-1,3,5-trimethyl-pyrazole-4-sulfonamide], the IC50 in assay [1] is over 1000 nM.

`O=S(=O)(Nc1cccc2c(Cl)c[nH]c12)c1cnn(C2CCOC2)c1` (stereo not shown) [Compound 8, N-(3-chloro-1H-indol-7-yl)-1-tetrahydrofuran-3-yl-pyrazole-4-sulfonamide]: the IC50 in assay [1] is under 250 nM.

For `Cc1ccc(NS(=O)(=O)c2cnn([C@H](CO)CF)c2)c2[nH]nc(C#N)c12` [Compound 314, N-(3-cyano-4-methyl-1H-indazol-7-yl)-1-[(1R)-1-(fluoromethyl)-2-hydroxy-ethyl]pyrazole-4-sulfonamide], in assay [1], the half-maximal inhibitory concentration (IC50) is under 250 nM.

For `Cn1ncc(S(=O)(=O)Nc2ccc(Cl)c3c(C#N)c[nH]c23)c1C#N` [Compound 132, N-(4-chloro-3-cyano-1H-indol-7-yl)-5-cyano-1-methyl-pyrazole-4-sulfonamide], in assay [1], the IC50 lay in the range of 250 to 1000 nM.

With `CC(C)(CO)n1ncc(S(=O)(=O)Nc2ccc(Cl)c3c(C#N)c[nH]c23)c1N` [Compound 316, 5-amino-N-(4-chloro-3-cyano-1H-indol-7-yl)-1-(2-hydroxy-1,1-dimethyl-ethyl)pyrazole-4-sulfonamide], the IC50 in assay [1] is under 250 nM.

For `Cc1ccc(NS(=O)(=O)c2cnn([C@H](CO)CF)c2)c2[nH]cc(C#N)c12` [Compound 313, N-(3-cyano-4-methyl-1H-indol-7-yl)-1-[(1R)-1-(fluoromethyl)-2-hydroxy-ethyl]pyrazole-4-sulfonamide], in assay [1], the IC50 is under 250 nM.

As for `Cc1ccc(NS(=O)(=O)c2cnn(C(C)(C)CO)c2N)c2[nH]cc(C#N)c12` [Compound 315, 5-amino-N-(3-cyano-4-methyl-1H-indol-7-yl)-1-(2-hydroxy-1,1-dimethyl-ethyl)pyrazole-4-sulfonamide], the IC50 in assay [1] was under 250 nM.

Regarding `O=S(=O)(c1cnn(CC2CC2)c1)N(CC1CC1)c1cccc2c(Cl)c[nH]c12` [Compound 48, N-(3-chloro-1H-indol-7-yl)-N,1-bis(cyclopropylmethyl)pyrazole-4-sulfonamide], the IC50 in assay [1] was over 1000 nM.

The record behind these values is patent publication US20250368627A1, “PYRAZOLESULFONAMIDES AS ANTITUMOR AGENTS” (Peloton Therapeutics, Inc., a fully owned subsidiary of …, priority 2019, published 2025).
